The values that follow come from PMC13197777, “Distinct 2-phenylimidazo[1,2-a]pyridine derivatives that inhibit breast cancer cell proliferation identified as AHR ligands” (iScience, 2026).

One data set has as its system MCF-7 luc Y537S. Put plainly: Clonogenic assay (clonal expansion), MCF-7 cells with Y537S ER mutation. In kind it is cell-based. Particulars: Homo sapiens, MCF7, 336 h. On the procedure: (§1) Cells were seeded at a density of 1–2×10^3 cells/well in a 6-well plate and treated with increasing concentrations of the X compounds for 14–21 days. Medium and compounds were renewed every 7 days. The experiments were terminated by fixing the cells with methanol and the colonies formed were visualized after staining with 0.5% crystal violet (w/v) in 20% methanol (v/v). Plates were photographed and the area covered by the colonies was calculated using the ColonyArea Plugin for Fiji (RRID:SCR_003070).[20]

The test system of data set [1] is MCF-7 luc D538G and MCF-7 luc Y537S. Description: Clonogenic assay, cells expressing the two mutant ERs (range over both). In kind it is cell-based. Particulars: Homo sapiens, MCF7, read-out: IC50 clonal expansion in cells expressing the two mutant ERs. On the procedure: as §1
In another data set the test system is CTC-ITB-01 cells. Description: Clonogenic assay of CTC-ITB-01 cells. Conditions: CTC-ITB-01, two weeks of treatment. In kind it is cell-based, human. On the procedure:
as §1

Another data set concerns PDxO#28. Put plainly: Organoid viability, CellTiter-Glo 3D. Conditions: PDxO#28 in 3D Matrigel, 7 days, increasing doses; same results in PDO#268 and PDO#480. The format is cell-based, human. From the text: Organoids were generated from patients’ samples and from patient-derived xenograft (PDX) tumors, as previously described.[25] PDX were derived from BCRO#28, an ER^+ breast cancer sample collected from a treatment naive patient. PDO#268 was derived from BCRO#268, an ER^+ breast cancer sample collected from treatment naive patient. PDO#480 was derived from BCRO#480, an ER^+ breast cancer sample collected from a patient subjected to chemotherapy in neo-adjuvant setting. Briefly, tumors freshly explanted from mice were mechanically shredded, digested with collagenase (Merck) and filtered through a 100 μm strainer. Digested material (isolated cells and small cell clusters) was centrifuged and embedded in 3D-matrix drops (reduced growth factor Basement Membrane Extract, BME, R&D systems), then overlaid with breast cancer organoid medium.[25] For 3D survival curves under treatment, organoids were embedded in BME drops and, after 24 - 48 h, drugs were added. Fresh drug-containing medium was replaced on day 4. On day 7 of treatment, CellTiter-Glo 3D Cell Viability Assay (Promega) was added and luminescent signal from viable organoids was recorded on Infinite M1000 Pro instrument (Tecan).
Background: In ATP-based viability assays light output follows the ATP content of the culture.

A short description of data set [2]: Thermodynamic solubility, shake-flask method. Particulars: HEPES buffer 0.1 M pH 7.4, 21 °C. The format is physicochemical. On the procedure: Thermodynamic solubility was determined using the classical shake-flask method. The solid compound (4 mg) was suspended in 1 mL HEPES buffer (0.1 M, pH 7.4) and constantly stirred at 21 °C for 24 h. […] The injection volume for all analyses was 50 μL and the flow rate was kept at 1 mL/min during the analysis. A mobile phase gradient method was applied as a method with 5% solvent B to 99% solvent B in 5 min, followed by 3 min of elution at 99% solvent B.
Calibration curve was generated from a serial dilution of the respective analyte in DMSO at 2.5, 1.25, 0.625, 0.313, 0.156, 0.078, 0.039 mM starting from a 10 mM DMSO stock solution. Subsequently, 2 μL of each dilution was added to 198 μL of a buffer (HEPES, 0.1 M, pH 7.4)/acetonitrile mixture in a 3:2 ratio yielding final dilutions of 25, 12.5, 6.25, 3.125, 1.562, 0.781, 0.391 μM. These were then subjected to HPLC analysis as described above.
Using the results from the linear regression of the internal calibration measurement points (Figure S5) and the mean AUC values from the saturated aqueous solutions, the concentration C of the analytes in the saturated aqueous solution, expressed in μM, were calculated using Equation 2:(Equation 1) AUC=Slope·C+YIntercept (Equation 2) C=AUC−YIntercept/Slope

The nature of data set [3]: Parallel artificial membrane permeability assay (PAMPA). Conditions: for Conc. acceptor well / Conc. donor well: PAMPA after incubation. On the procedure:
The plates were stored at – 20 °C until ready for use. Prior to use, the plate was prewarmed at room temperature for 30 min. Donor- and acceptor solutions were prepared as 12 mM phosphate buffered saline with a pH of 6.5 (donor) respectively 7.4 (acceptor). […] Then, 300 μL of each donor solution were filled into the donor (bottom) wells of the PAMPA plate. 200 μL of the acceptor medium were loaded into each well of the pre-coated receiver plate (top). […] The compound concentrations in the donor- and acceptor wells were then determined using a Jasco 2 HPLC system equipped with a ReproSil-Pur 120 ODS-3 column (5 μm, 50 × 2 mm) and UV detection. […] The injection volume was 40 μL and the flow rate 1 mL/min. […] For X15695, two calibration curves were prepared in the presence (donor well) and absence (acceptor well) of 10% ethanol. (Figure S6). The experiments were performed in triplicates.
Where cA(t) is the compound concentration in the acceptor well in μmol⋅l^−1, cD(t) is the compound concentration in the donor well in […], VA and VD is the volume of the acceptor respectively donor solution per well in mL, A is the membrane area in cm^2 and t the incubation time in seconds (Table S3).

Data set [4] has as its system ERα target genes (PGR, TFF1, PDZK1, GREB1). Description: Quantitative RT-PCR of ER target genes in MCF-7 cells. Particulars: MCF-7, 1 μM, absence and presence of 10 nM E2, 24 h.

The structures appear in SMILES notation. Values after ≈ are worked out from the molar mass of the structure shown. Like-named read-outs stand apart in the source and are kept apart here.

Regarding `Fc1ccc(-c2cn3cc(C(F)(F)F)cc(Cl)c3n2)cc1` [X15695], the IC50 (as a rule, the concentration at which inhibition is half-maximal) with MCF-7 luc Y537S (read-out: IC50 clonal expansion, Figure 1B, MCF-7 luc Y537S, absence of E2, 14 days) was 7.82 nM; in the data set with MCF-7 luc Y537S (read-out: IC50 clonal expansion, Figure 1C, MCF-7 luc Y537S + 10 nM E2, 14 days) it was 6.41 nM; in the data set with MCF-7 luc Y537S (read-out: IC50 clonal expansion, Figure 1D, MCF-7 luc Y537S, absence of E2, 14 days) it was 7.82 nM; in the data set on MCF-7 luc Y537S (read-out: IC50 clonal expansion, Figure 1E, MCF-7 luc Y537S + 10 nM E2, 14 days) it was 6.41 nM; in data set [1] it was 7.82 to 11.6 nM. In addition, in the data set on CTC-ITB-01 cells, the “inhibition of clonal expansion compared to fulvestrant” value is recorded as “about three orders of magnitude more potent”. Besides, in the data set with PDxO#28, the “organoid viability (survival)” value is on record as “significantly reduced survival in a dose-dependent manner”. Besides, the solubility (thermodynamic) (commonly the concentration in solution at equilibrium with solid) at 24 h in data set [2] worked out at 3 µM (≈ 0.944 µg/mL); in data set [2] (HEPES buffer, 21 °C, pH 7.4, aqueous buffer, thermodynamic from solid), 2.99 µM (≈ 0.941 µg/mL). Further, the Papp (commonly the rate of passage across a membrane or cell layer, normalised by area and donor concentration) at 5 h, 200 µM in data set [3] (PAMPA) was 8.68 ×10⁻⁶ cm/s. Besides, the Conc. acceptor well is on record as 55.19 µM in data set [3] (replica 1), 55.84 µM in data set [3] (replica 2) and 25.23 µM in data set [3] (replica 3). Further, the values for the Conc. donor well in data set [3] (replica 1), in data set [3] (replica 2) and in data set [3] (replica 3) were 214.69 µM, 190.41 µM and 225.99 µM, respectively.
Turning to `Cc1cc(Cl)c2nc(-c3ccccc3)cn2c1` [X19728], the “expression of ERα target genes (RT-PCR)” value in data set [4] is listed as “not significant in the presence of E2”.
